{"source": "patent EP0377642B1", "about": "“HERBICIDES FOR WEED CONTROL IN RICE” (E.I. DU PONT DE NEMOURS AND COMPANY, priority 1987, dated 1989)", "format_in_all_cases": "in vivo", "key": {"FIMBRISTYLIS MILIACEA": {"system": "FIMBRISTYLIS MILIACEA", "test": "Herbicidal efficacy with Bensulfuron methyl and 2,4-D in Thailand (Table 20)", "details": "14 days after treatment", "from_the_text": "(§1) Methyl 2-[[[[(4-methoxy-6-methyl-1,3,5-triazin-2-yl)amino]carbonyl]amino]sulfonyl]benzoate (Compound 1) and mixtures thereof with other compounds were applied as a spray (using a hand sprayer) to rice (either transplanted or direct seeded) in several rice growing areas in Southeast Asia and in the U.S. Tables 1-28 contain the results of these tests and clearly exemplify the utility of this invention. The details of each application are included in the appropriate table. [drawing 2]"}, "Cuperus iria": {"system": "Cuperus iria", "test": "Herbicidal efficacy with Bensulfuron methyl and 2,4-D in Thailand (Table 20)", "details": "14 days after treatment", "from_the_text": "as §1"}, "Sphenoclea zeylanica [1]": {"system": "Sphenoclea zeylanica", "test": "Herbicidal efficacy with Bensulfuron methyl and 2,4-D in Thailand (Table 20)", "details": "14 days after treatment", "from_the_text": "as §1"}, "Ludwigia linifolia": {"system": "Ludwigia linifolia", "test": "Herbicidal efficacy with Bensulfuron methyl and 2,4-D in Thailand (Table 20)", "details": "14 days after treatment", "from_the_text": "as §1"}, "rice [2]": {"system": "rice", "test": "Herbicidal efficacy with Bensulfuron methyl and 2,4-D in Thailand (Table 20)", "details": "14 days after treatment", "from_the_text": "as §1"}, "Cuperus difformis": {"system": "Cuperus difformis", "test": "Herbicidal efficacy with Bensulfuron methyl and 2,4-D in Thailand (Table 19)", "details": "13 days after treatment", "from_the_text": "as §1"}, "Sphenoclea zeylanica [3]": {"system": "Sphenoclea zeylanica", "test": "Herbicidal efficacy with Bensulfuron methyl and 2,4-D in Thailand (Table 19)", "details": "13 days after treatment", "from_the_text": "as §1"}, "rice [4]": {"system": "rice", "test": "Herbicidal efficacy with Bensulfuron methyl and 2,4-D in Thailand (Table 19)", "details": "13 days after treatment", "from_the_text": "as §1"}, "direct seeded rice [5]": {"system": "direct seeded rice", "test": "Field test applied 7 DAS in direct seeded rice in the Philippines, phytotoxicity (Table 14)", "details": "30 DAA", "from_the_text": "as §1"}, "WEED": {"system": "WEED", "test": "Effects in combination with Bensulfuron Methyl and Thiobencarb or Pretilachlor on weed control (Table 24)", "details": "rate 25 g ai/ha, scale 0 to 10, treated at 1.0 leaf stage, evaluated four weeks later", "from_the_text": "as §1"}, "direct seeded rice [6]": {"system": "direct seeded rice", "details": "for PHYTO at 2WAA: scale 0-10", "from_the_text": "as §1"}, "Cyperus difformis": {"system": "Cyperus difformis", "test": "Herbicidal efficacy with Bensulfuron methyl and 2,4-D in Thailand (Table 18)", "details": "13 days after treatment", "from_the_text": "as §1"}, "Sphenoclea zeylanica [7]": {"system": "Sphenoclea zeylanica", "test": "Herbicidal efficacy with Bensulfuron methyl and 2,4-D in Thailand (Table 18)", "details": "13 days after treatment", "from_the_text": "as §1"}, "rice [8]": {"system": "rice", "test": "Herbicidal efficacy with Bensulfuron methyl and 2,4-D in Thailand (Table 18)", "details": "13 days after treatment", "from_the_text": "as §1"}}, "note": "Read-outs that look alike come from different tables or passages of the source.", "data": [{"compound": "COC(=O)c1ccccc1CS(=O)(=O)NC(=O)Nc1nc(OC)cc(OC)n1", "note": "[Bensulfuron methyl, methyl 2-[[[[[(4,6-dimethoxy-2-pyrimidinyl)amino]carbonyl]amino]sulfonyl]methyl]benzoate]", "values": [{"measurement": "% CONTROL OR INJURY FM", "setting": "FIMBRISTYLIS MILIACEA; 10 GAI/HA", "result": 80, "unit": "%"}, {"measurement": "% CONTROL OR INJURY FM", "setting": "FIMBRISTYLIS MILIACEA; 15 GAI/HA", "result": 100, "unit": "%"}, {"measurement": "% CONTROL OR INJURY FM", "setting": "FIMBRISTYLIS MILIACEA; 20 GAI/HA", "result": 100, "unit": "%"}, {"measurement": "% CONTROL OR INJURY CI", "setting": "Cuperus iria; 10 GAI/HA", "result": 77, "unit": "%"}, {"measurement": "% CONTROL OR INJURY CI", "setting": "Cuperus iria; 15 GAI/HA", "result": 90, "unit": "%"}, {"measurement": "% CONTROL OR INJURY CI", "setting": "Cuperus iria; 20 GAI/HA", "result": 95, "unit": "%"}, {"measurement": "% CONTROL OR INJURY SZ", "setting": "Sphenoclea zeylanica [1]; 10 GAI/HA", "result": 23, "unit": "%"}, {"measurement": "% CONTROL OR INJURY SZ", "setting": "Sphenoclea zeylanica [1]; 15 GAI/HA", "result": 60, "unit": "%"}, {"measurement": "% CONTROL OR INJURY SZ", "setting": "Sphenoclea zeylanica [1]; 20 GAI/HA", "result": 53, "unit": "%"}, {"measurement": "% CONTROL OR INJURY LL", "setting": "Ludwigia linifolia; 10 GAI/HA", "result": 80, "unit": "%"}, {"measurement": "% CONTROL OR INJURY LL", "setting": "Ludwigia linifolia; 15 GAI/HA", "result": 80, "unit": "%"}, {"measurement": "% CONTROL OR INJURY LL", "setting": "Ludwigia linifolia; 20 GAI/HA", "result": 87, "unit": "%"}, {"measurement": "% CONTROL OR INJURY RICE", "setting": "rice [2]; 10 GAI/HA", "result": 0, "unit": "%"}, {"measurement": "% CONTROL OR INJURY RICE", "setting": "rice [2]; 15 GAI/HA", "result": 0, "unit": "%"}, {"measurement": "% CONTROL OR INJURY RICE", "setting": "rice [2]; 20 GAI/HA", "result": 0, "unit": "%"}, {"measurement": "% CONTROL OR INJURY CD", "setting": "Cuperus difformis; 10 GAI/HA", "result": 100, "unit": "%"}, {"measurement": "% CONTROL OR INJURY CD", "setting": "Cuperus difformis; 15 GAI/HA", "result": 100, "unit": "%"}, {"measurement": "% CONTROL OR INJURY CD", "setting": "Cuperus difformis; 20 GAI/HA", "result": 100, "unit": "%"}, {"measurement": "% CONTROL OR INJURY SZ", "setting": "Sphenoclea zeylanica [3]; 10 GAI/HA", "result": 88, "unit": "%"}, {"measurement": "% CONTROL OR INJURY SZ", "setting": "Sphenoclea zeylanica [3]; 15 GAI/HA", "result": 100, "unit": "%"}, {"measurement": "% CONTROL OR INJURY SZ", "setting": "Sphenoclea zeylanica [3]; 20 GAI/HA", "result": 100, "unit": "%"}, {"measurement": "% CONTROL OR INJURY RICE", "setting": "rice [4]; 10 GAI/HA", "result": 0, "unit": "%"}, {"measurement": "% CONTROL OR INJURY RICE", "setting": "rice [4]; 15 GAI/HA", "result": 0, "unit": "%"}, {"measurement": "% CONTROL OR INJURY RICE", "setting": "rice [4]; 20 GAI/HA", "result": 0, "unit": "%"}, {"measurement": "PHYTO (1-9)", "setting": "direct seeded rice [5]; 8.25 G AI/HA", "result": 1.3}, {"measurement": "PHYTO (1-9)", "setting": "direct seeded rice [5]; 12.0 G AI/HA", "result": 1}, {"measurement": "PHYTO (1-9)", "setting": "direct seeded rice [5]; 16.50 G AI/HA", "result": 1.7}, {"measurement": "WEED CONTROL RATINGS CD", "setting": "WEED; Cyperus difformis", "result": 1}, {"measurement": "WEED CONTROL RATINGS CS", "setting": "WEED; Cyperus serotinus", "result": 6}, {"measurement": "WEED CONTROL RATINGS EO", "setting": "WEED; Echinochloa oryzicola", "result": 1}, {"measurement": "WEED CONTROL RATINGS BL", "setting": "WEED; Lindernia pyxidaria", "result": 10}, {"measurement": "WEED CONTROL RATINGS MV", "setting": "WEED; Monochoria vaginalis", "result": 10}, {"measurement": "WEED CONTROL RATINGS SP", "setting": "WEED; Sagittaria pygmaea", "result": 8.5}, {"measurement": "WEED CONTROL RATINGS SJ", "setting": "WEED; Scirpus juncoides", "result": 5}, {"measurement": "YIELD", "setting": "direct seeded rice [6]; 7 DAS, 10 GM.A.I./HA", "result": 4.92, "unit": "TONS/HA"}, {"measurement": "PHYTO at 2WAA", "setting": "direct seeded rice [6]; 7 DAS, 10 GM.A.I./HA", "result": 0}, {"measurement": "YIELD", "setting": "direct seeded rice [6]; 7 DAS, 15 GM.A.I./HA", "result": 4.99, "unit": "TONS/HA"}, {"measurement": "PHYTO at 2WAA", "setting": "direct seeded rice [6]; 7 DAS, 15 GM.A.I./HA", "result": 0}, {"measurement": "YIELD", "setting": "direct seeded rice [6]; 7 DAS, 20 GM.A.I./HA", "result": 5.01, "unit": "TONS/HA"}, {"measurement": "PHYTO at 2WAA", "setting": "direct seeded rice [6]; 7 DAS, 20 GM.A.I./HA", "result": 0}, {"measurement": "YIELD", "setting": "direct seeded rice [6]; 7 DAS, 30 GM.A.I./HA", "result": 4.67, "unit": "TONS/HA"}, {"measurement": "PHYTO at 2WAA", "setting": "direct seeded rice [6]; 7 DAS, 30 GM.A.I./HA", "result": 0}, {"measurement": "YIELD", "setting": "direct seeded rice [6]; 18 DAS, 10 GM.A.I./HA", "result": 4.61, "unit": "TONS/HA"}, {"measurement": "PHYTO at 2WAA", "setting": "direct seeded rice [6]; 18 DAS, 10 GM.A.I./HA", "result": 0}, {"measurement": "YIELD", "setting": "direct seeded rice [6]; 18 DAS, 15 GM.A.I./HA", "result": 4.49, "unit": "TONS/HA"}, {"measurement": "PHYTO at 2WAA", "setting": "direct seeded rice [6]; 18 DAS, 15 GM.A.I./HA", "result": 0}, {"measurement": "YIELD", "setting": "direct seeded rice [6]; 18 DAS, 20 GM.A.I./HA", "result": 4.61, "unit": "TONS/HA"}, {"measurement": "PHYTO at 2WAA", "setting": "direct seeded rice [6]; 18 DAS, 20 GM.A.I./HA", "result": 0}, {"measurement": "YIELD", "setting": "direct seeded rice [6]; 18 DAS, 30 GM.A.I./HA", "result": 5.17, "unit": "TONS/HA"}, {"measurement": "PHYTO at 2WAA", "setting": "direct seeded rice [6]; 18 DAS, 30 GM.A.I./HA", "result": 0}, {"measurement": "% CONTROL OR INJURY CD", "setting": "Cyperus difformis; 10 GAI/HA", "result": 100, "unit": "%"}, {"measurement": "% CONTROL OR INJURY CD", "setting": "Cyperus difformis; 15 GAI/HA", "result": 100, "unit": "%"}, {"measurement": "% CONTROL OR INJURY CD", "setting": "Cyperus difformis; 20 GAI/HA", "result": 100, "unit": "%"}, {"measurement": "% CONTROL OR INJURY SZ", "setting": "Sphenoclea zeylanica [7]; 10 GAI/HA", "result": 99, "unit": "%"}, {"measurement": "% CONTROL OR INJURY SZ", "setting": "Sphenoclea zeylanica [7]; 15 GAI/HA", "result": 100, "unit": "%"}, {"measurement": "% CONTROL OR INJURY SZ", "setting": "Sphenoclea zeylanica [7]; 20 GAI/HA", "result": 100, "unit": "%"}, {"measurement": "% CONTROL OR INJURY RICE", "setting": "rice [8]; 10 GAI/HA", "result": 0, "unit": "%"}, {"measurement": "% CONTROL OR INJURY RICE", "setting": "rice [8]; 15 GAI/HA", "result": 0, "unit": "%"}, {"measurement": "% CONTROL OR INJURY RICE", "setting": "rice [8]; 20 GAI/HA", "result": 0, "unit": "%"}]}]}
